The values that follow come from patent publication US11655217B2, “Pyrazole MAGL inhibitors” (H. Lundbeck A/S, priority 2017, dated 2023).

In one assay the target is MAGL (Mus musculus (Mouse), UniProt O35678). As to the kind of experiment: Mouse brain proteomes from inhibitor treated mice (oral gavage, sacrificed 4 h after administration, ABPP analysis). Particulars: 5 mg/kg oral gavage.
A further assay addresses FAAH (Mus musculus (Mouse), UniProt O08914). As to the kind of experiment: Mouse brain proteomes from inhibitor treated mice (oral gavage, sacrificed 4 h after administration, ABPP analysis), FAAH. Particulars: 5 mg/kg oral gavage.

Sequence of MAGL (O35678 whole entry): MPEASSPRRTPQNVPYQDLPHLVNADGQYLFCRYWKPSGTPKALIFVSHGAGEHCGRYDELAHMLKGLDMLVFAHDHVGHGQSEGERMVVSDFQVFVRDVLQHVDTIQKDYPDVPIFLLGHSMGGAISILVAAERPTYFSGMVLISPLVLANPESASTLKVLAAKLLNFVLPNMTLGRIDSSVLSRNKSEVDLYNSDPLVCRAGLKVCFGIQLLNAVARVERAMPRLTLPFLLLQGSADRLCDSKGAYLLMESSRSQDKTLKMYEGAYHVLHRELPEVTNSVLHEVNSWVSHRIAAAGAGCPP
Sequence of FAAH (O08914 whole entry): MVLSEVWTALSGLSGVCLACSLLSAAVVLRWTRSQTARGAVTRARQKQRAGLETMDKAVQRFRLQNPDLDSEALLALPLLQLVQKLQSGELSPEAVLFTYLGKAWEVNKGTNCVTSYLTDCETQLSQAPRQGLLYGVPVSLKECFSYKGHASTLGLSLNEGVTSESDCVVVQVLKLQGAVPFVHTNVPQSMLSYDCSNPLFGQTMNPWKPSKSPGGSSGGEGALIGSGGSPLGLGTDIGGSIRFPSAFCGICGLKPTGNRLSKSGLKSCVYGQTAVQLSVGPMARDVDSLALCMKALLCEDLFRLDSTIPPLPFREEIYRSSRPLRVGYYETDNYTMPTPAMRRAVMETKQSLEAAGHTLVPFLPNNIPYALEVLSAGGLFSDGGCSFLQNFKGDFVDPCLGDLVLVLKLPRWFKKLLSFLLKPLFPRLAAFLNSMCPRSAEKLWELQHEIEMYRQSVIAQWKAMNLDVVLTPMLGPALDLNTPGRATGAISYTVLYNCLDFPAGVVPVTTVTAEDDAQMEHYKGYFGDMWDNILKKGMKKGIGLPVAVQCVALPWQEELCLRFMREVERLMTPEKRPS
Procedure for FAAH: (§1) Preparation of Mouse Brain Proteomes from Inhibitor Treated Mice.
(§2) Inhibitors were administered to wild-type C57Bl/6J by oral gavage in a vehicle of polyethylene glycol.
Procedure for MAGL: as §1, §2

`O=C(O)c1nn(C(=O)N2CCN(Cc3cccc(Oc4ccc(Cl)cc4)c3)CC2)cc1Cl` [Example 132, 4-chloro-1-(4-(3-(4-chlorophenoxy)benzyl)piperazine-1-carbonyl)-1H-pyrazole-3-carboxylic acid]: at MAGL, the “MAGL % inh. 5 mg/kg (mouse)” value is “D (% inhibition is greater than or equal to 0% and less than 25%)”. Besides, the “FAAH % inh. 5 mg/kg (mouse)” value on FAAH is “D (% inhibition is greater than or equal to 0% and less than 25%)”.
Consider `Cc1c(CO[C@H]2C[C@@H]3CN(C(=O)n4ccc(C(=O)O)n4)C[C@@H]3C2)cccc1C(F)(F)F` [Example 159, 1-(trans-5-((2-methyl-3-(trifluoromethyl)benzyl)oxy)octa-hydrocyclopenta[c]pyrrole-2-carbonyl)-1H-pyrazole-3-carboxylic acid], for which the “MAGL % inh. 5 mg/kg (mouse)” value at MAGL was “D (% inhibition is greater than or equal to 0% and less than 25%)”. At FAAH, the “FAAH % inh. 5 mg/kg (mouse)” value is “D (% inhibition is greater than or equal to 0% and less than 25%)”.
As to `O=C(O)c1ccn(C(=O)N2CCC(Oc3ccc(Cl)cc3N3CCCC3)CC2)n1` [Example 11, 1-(4-(4-Chloro-2-(pyrrolidin-1-yl)phenoxy)piperidine-1-carbonyl)-1H-pyrazole-3-carboxylic Acid], on MAGL, the “MAGL % inh. 5 mg/kg (mouse)” value was “D (% inhibition is greater than or equal to 0% and less than 25%)”. Further, on FAAH, the “FAAH % inh. 5 mg/kg (mouse)” value is “D (% inhibition is greater than or equal to 0% and less than 25%)”.
On to `O=C(O)c1ccn(C(=O)N2CCN(Cc3ccc(Cl)cc3N3CC4COCC4C3)CC2)n1` (stereo not shown) [Example 111, 1-(4-(4-chloro-2-(tetrahydro-1H-furo[3,4-c]pyrrol-5(3H)-yl)benzyl)piperazine-1-carbonyl)-1H-pyrazole-3-carboxylic acid], for which, at MAGL, the “MAGL % inh. 5 mg/kg (mouse)” value is “D (% inhibition is greater than or equal to 0% and less than 25%)”. The “FAAH % inh. 5 mg/kg (mouse)” value on FAAH was “D (% inhibition is greater than or equal to 0% and less than 25%)”.
Consider `O=C(O)c1ccn(C(=O)N2CCN(Cc3cc4cc(Cl)ccc4s3)CC2)n1` [Example 187, 1-(4-((5-chlorobenzo[b]thio-phen-2-yl)methyl)piperazine-1-carbonyl)-1H-pyrazole-3-carboxylic acid], for which, on MAGL, the “MAGL % inh. 5 mg/kg (mouse)” value was “D (% inhibition is greater than or equal to 0% and less than 25%)”. Besides, the “FAAH % inh. 5 mg/kg (mouse)” value at FAAH is “D (% inhibition is greater than or equal to 0% and less than 25%)”.
On to `O=C(O)c1ccn(C(=O)N2CCC3(CCCN3Cc3cc(N4CCCC4)cc(C(F)(F)F)c3)CC2)n1` [Example 88, 1-(1-(3-(pyrrolidin-1-yl)-5-(trifluoromethyl)benzyl)-1,8-diazaspiro[4.5]decane-8-carbonyl)-1-1H-pyrazole-3-carboxylic acid], for which the “MAGL % inh. 5 mg/kg (mouse)” value on MAGL is “D (% inhibition is greater than or equal to 0% and less than 25%)”. For the same compound, at FAAH, the “FAAH % inh. 5 mg/kg (mouse)” value is “D (% inhibition is greater than or equal to 0% and less than 25%)”.
Consider `O=C(O)c1nn(C(=O)N2CCC3(CCCN3Cc3cc4ccc(C(F)(F)F)cc4s3)CC2)cc1Cl` [Example 139, 4-chloro-1-(1-((6-(trifluoromethyl)benzo[b]thiophen-2-yl)methyl)-1,8-diazaspiro[4.5]decane-8-carbonyl)-1H-pyrazole-3-carboxylic acid], for which the “MAGL % inh. 5 mg/kg (mouse)” value at MAGL was “D (% inhibition is greater than or equal to 0% and less than 25%)”. Moreover, the “FAAH % inh. 5 mg/kg (mouse)” value on FAAH was “D (% inhibition is greater than or equal to 0% and less than 25%)”.
Regarding `O=C(O)c1ccn(C(=O)N2CCC(Oc3ccc(Cl)c(N4CCCC4)c3)CC2)n1` [Example 121, 1-(4-(4-chloro-3-(pyrrolidin-1-yl)phenoxy)piperidine-1-carbonyl)-1H-pyrazole-3-carboxylic acid], the “MAGL % inh. 5 mg/kg (mouse)” value on MAGL is “D (% inhibition is greater than or equal to 0% and less than 25%)”. In addition, the “FAAH % inh. 5 mg/kg (mouse)” value on FAAH was “D (% inhibition is greater than or equal to 0% and less than 25%)”.
As for `CC1CCC(C)N1c1cc(C(F)(F)F)ccc1CN1CCN(C(=O)n2ccc(C(=O)O)n2)CC1` (stereo not shown) [Example 114, 1-(4-(2-(2,5-dimethylpyrrolidin-1-yl)-4-(trifluoromethyl)benzyl)piperazine-1-carbonyl)-1H-pyrazole-3-carboxylic acid], the “MAGL % inh. 5 mg/kg (mouse)” value on MAGL was “D (% inhibition is greater than or equal to 0% and less than 25%)”. Moreover, at FAAH, the “FAAH % inh. 5 mg/kg (mouse)” value is “D (% inhibition is greater than or equal to 0% and less than 25%)”.
Regarding `NC(=O)c1ccn(C(=O)N2CCN(Cc3cccc(C(F)(F)F)c3N3CCOCC3)CC2)n1` [Example 199, 1-(4-(2-morpholino-3-(trifluoromethyl)benzyl)piperazine-1-carbonyl)-1H-pyrazole-3-carboxamide], the “MAGL % inh. 5 mg/kg (mouse)” value on MAGL is listed as “A (% inhibition is greater than or equal to 75%)”. For the same compound, the “FAAH % inh. 5 mg/kg (mouse)” value at FAAH was “D (% inhibition is greater than or equal to 0% and less than 25%)”.
In the case of `O=C(O)c1ccn(C(=O)N2CC3CN(Cc4ccc(N5CCCC5)cc4C(F)(F)F)CC3C2)n1` (stereo not shown) [Example 123, 1-(5-(4-(pyrrolidin-1-yl)-2-(trifluoromethyl)benzyl)octahydro-pyrrolo[3,4-c]pyrrole-2-carbonyl)-1H-pyrazole-3-carboxylic acid], the “MAGL % inh. 5 mg/kg (mouse)” value on MAGL is “D (% inhibition is greater than or equal to 0% and less than 25%)”. The “FAAH % inh. 5 mg/kg (mouse)” value on FAAH was “D (% inhibition is greater than or equal to 0% and less than 25%)”.
Turning to `O=C(O)c1ccn(C(=O)N2CCN(Cc3ccc(C(F)(F)F)cc3N3CCCC3)CC2)n1` [Example 83, 1-(4-(2-(pyrrolidin-1-yl)-4-(trifluoromethyl)benzyl)piperazine-1-carbonyl)-1H-pyrazole-3-carboxylic acid], the “MAGL % inh. 5 mg/kg (mouse)” value at MAGL is “D (% inhibition is greater than or equal to 0% and less than 25%)”. For the same compound, the “FAAH % inh. 5 mg/kg (mouse)” value on FAAH was “D (% inhibition is greater than or equal to 0% and less than 25%)”.
Take `CN(Cc1ccc(C(F)(F)F)cc1N1C2CCC1COC2)C1(C)CCN(C(=O)n2ccc(C(=O)O)n2)CC1` [Example 207, 1-(4-((2-(3-oxa-8-azabicyclo[3.2.1]octan-8-yl)-4-(trifluoromethyl)benzyl)(methyl)-amino)-4-methyl-piperidine-1-carbonyl)-1H-pyrazole-3-carboxylic acid]: the “MAGL % inh. 5 mg/kg (mouse)” value on MAGL was “D (% inhibition is greater than or equal to 0% and less than 25%)”. Further, on FAAH, the “FAAH % inh. 5 mg/kg (mouse)” value is “D (% inhibition is greater than or equal to 0% and less than 25%)”.
`O=C(O)c1ccn(C(=O)N2CCN(Cc3ccc(C(F)(F)F)cc3N3CCOCC3)CC2)n1` [Example 3, 1-(4-(2-Morpholino-4-(trifluoromethyl)benzyl)piperazine-1-carbonyl)-1H-pyrazole-3-carboxylic Acid]: at MAGL, the “MAGL % inh. 5 mg/kg (mouse)” value was “D (% inhibition is greater than or equal to 0% and less than 25%)”. Also, the “FAAH % inh. 5 mg/kg (mouse)” value at FAAH was “D (% inhibition is greater than or equal to 0% and less than 25%)”.
`O=C(O)c1ccn(C(=O)N2CCC3(CCN(Cc4cccc(Oc5ccc(Cl)cc5)c4)C3)CC2)n1` [Example 210, 1-(2-(3-(4-chlorophenoxy)benzyl)-2,8-diazaspiro[4.5]decane-8-carbonyl)-1H-pyrazole-3-carboxylic acid]: on MAGL, the “MAGL % inh. 5 mg/kg (mouse)” value was “D (% inhibition is greater than or equal to 0% and less than 25%)”. The “FAAH % inh. 5 mg/kg (mouse)” value on FAAH is “D (% inhibition is greater than or equal to 0% and less than 25%)”.
For the compound `O=C(O)c1nn(C(=O)N2CC3CN(Cc4ccc(N5CCCC5)cc4C(F)(F)F)CC3C2)cc1Cl` (stereo not shown) [Example 140, 4-chloro-1-(5-(4-(pyrrolidin-1-yl)-2-(trifluoromethyl)benzyl)octahydro-pyrrolo[3,4-c]pyrrole-2-carbonyl)-1H-pyrazole-3-carboxylic acid], the “MAGL % inh. 5 mg/kg (mouse)” value at MAGL was “D (% inhibition is greater than or equal to 0% and less than 25%)”. Moreover, the “FAAH % inh. 5 mg/kg (mouse)” value at FAAH is “D (% inhibition is greater than or equal to 0% and less than 25%)”.
In the case of `O=C(O)c1ccn(C(=O)N2CCN(Cc3ccc(C(F)(F)F)cc3N3CCN4CCC[C@@H]4C3)CC2)n1` [Example 48, (R)-1-(4-(2-(hexahydropyrrolo-[1,2-a]pyrazin-2(1H)-yl)-4-(trifluoromethyl)benzyl)piperazine-1-carbonyl)-1H-pyrazole-3-carboxylic acid], the “MAGL % inh. 5 mg/kg (mouse)” value on MAGL was “D (% inhibition is greater than or equal to 0% and less than 25%)”. Moreover, the “FAAH % inh. 5 mg/kg (mouse)” value at FAAH is “D (% inhibition is greater than or equal to 0% and less than 25%)”.
As to `O=C(O)c1ccn(C(=O)N2CCC3(CCCN3Cc3cc(Cl)cc(C(F)(F)F)c3)CC2)n1` [Example 86, 1-(1-(3-chloro-5-(trifluoromethyl)benzyl)-1,8-diazaspiro[4.5]decane-8-carbonyl)-1H-pyrazole-3-carboxylic acid], the “MAGL % inh. 5 mg/kg (mouse)” value at MAGL was “D (% inhibition is greater than or equal to 0% and less than 25%)”. Besides, at FAAH, the “FAAH % inh. 5 mg/kg (mouse)” value is “D (% inhibition is greater than or equal to 0% and less than 25%)”.
`O=C(O)c1nn(C(=O)N2CCC3(CCN(Cc4cc(Cl)ccc4C(F)(F)F)C3)CC2)cc1C(F)(F)F` [Example 148, 1-(2-(5-chloro-2-(trifluoromethyl)benzyl)-2,8-diazaspiro[4.5]decane-8-carbonyl)-4-(trifluoromethyl)-1H-pyrazole-3-carboxylic acid]: at MAGL, the “MAGL % inh. 5 mg/kg (mouse)” value is “D (% inhibition is greater than or equal to 0% and less than 25%)”. In addition, the “FAAH % inh. 5 mg/kg (mouse)” value on FAAH was “C (% inhibition is greater than or equal to 25% and less than 50%)”.
With `CC(C)(O)C1CCN(c2cc(C(F)(F)F)ccc2CN2CCN(C(=O)n3ccc(C(=O)O)n3)CC2)CC1` [Example 109, 1-(4-(2-(4-(2-hydroxypropan-2-yl)piperidin-1-yl)-4-(trifluoromethyl)benzyl)piperazine-1-carbonyl)-1H-pyrazole-3-carboxylic acid], the “MAGL % inh. 5 mg/kg (mouse)” value on MAGL is “D (% inhibition is greater than or equal to 0% and less than 25%)”. Further, at FAAH, the “FAAH % inh. 5 mg/kg (mouse)” value was “D (% inhibition is greater than or equal to 0% and less than 25%)”.
